For 36 compounds, melting point results are on record in US6828315B1, “1-Amino triazoloc4,3-a! quinazoline-5-ones and/or -5-thiones inhibiting phosphodiesterase IV” (Warner-Lambert LLC, priority 1999, dated 2004).

Each structure is given as a SMILES string. Some results are limits rather than exact numbers.

Compound `C=CCn1nc(N2CCCCCC2)n2c3ccc(Cl)cc3c(=O)nc12` [Compound 110, 3-Allyl-1-azepan-1-yl-7-chloro-3H-[1,2,4]triazolo[4,3-a]quinazolin-5-one] came in with a melting point of 173 °C.
As to `O=c1nc2n(Cc3ccccc3)nc(N3CCCCCC3)n2c2ccc(Cl)cc12` [Compound 111, 1-(azepan-1-yl)-7-chloro-3-benzyl-3H-[1,2,4]triazolo[4,3-a]-quinazolin-5-one], the melting point amounted to 148 °C.
Turning to `Cc1ccc(Cn2nc(N3CCCCCC3)n3c4ccc(Cl)cc4c(=O)nc23)cc1` [Compound 112, 1-Azepan-1-yl-7-chloro-3-(4-methyl-benzyl)-3H-[1,2,4]triazolo[4,3-a]quinazolin-5-one], the melting point amounted to 182 °C.
In the case of `O=c1nc2n(Cc3ccccc3Cl)nc(N3CCCCCC3)n2c2ccc(Cl)cc12` [Compound 113, 1-(azepan-1-yl)-7-chloro-3-(2-chlorobenzyl)-3H-[1,2,4]triazolo[4,3-a]quinazolin-5-one], the melting point was found to be 228 °C.
Regarding `O=c1nc2n(Cc3cccc(Cl)c3)nc(N3CCCCCC3)n2c2ccc(Cl)cc12` [Compound 114, 1-(azepan-1-yl)-7-chloro-3-(3-chlorobenzyl)-3H-[1,2,4]triazolo[4,3-a]quinazolin-5one], the melting point came to 166 °C.
Then `O=c1nc2n(Cc3ccc(Cl)cc3)nc(N3CCCCCC3)n2c2ccc(Cl)cc12` [Compound 115, 1-(azepan-1-yl)-7-chloro-3-(4-chlorobenzyl)-3H-[1,2,4]triazolo[4,3-a]quinazolin-5-one], with 245 °C; and `O=c1nc2n(Cc3ccc(Br)cc3)nc(N3CCCCCC3)n2c2ccc(Cl)cc12` [Compound 116, 1-(azepan-1-yl)-7-chloro-3-(4-bromobenzyl)-3H-[1,2,4]triazolo(4,3-a]quinazolin-5-one], with 244 °C.
For `O=c1nc2n(Cc3ccc(F)cc3)nc(N3CCCCCC3)n2c2ccc(Cl)cc12` [Compound 117, 1-(azepan-1-yl)-7-chloro-3-(4-fluorobenzyl)-3H-[1,2,4)triazolo[4,3-a]quinazolin-5-one], the melting point was 224 °C.
As for `O=c1nc2n(Cc3ccc(C(F)(F)F)cc3)nc(N3CCCCCC3)n2c2ccc(Cl)cc12` [Compound 118, 1-(azepan-1-yl)-7-chloro-3-(4-(trifluoromethyl)benzyl)-3H-[1,2,4]triazolo[4,3-a]quinazolin-5-one], the figure is 232 °C; as for `N#Cc1ccc(Cn2nc(N3CCCCCC3)n3c4ccc(Cl)cc4c(=O)nc23)cc1` [Compound 119, 1-(azepan-1-yl)-7-chloro-3-(4-cyanobenzyl)-3H-[1,2,4]triazolo[4,3-a]quinazolin-5-one], > 260 °C.
Consider `COc1ccccc1Cn1nc(N2CCCCCC2)n2c3ccc(Cl)cc3c(=O)nc12` [Compound 120, 1-(azepan-1-yl)-7-chloro-3-(2-methoxybenzyl)-3H-[1,2,4]triazolo[4,3-a]quinazolin-5-one], for which the melting point stood at 184 °C.
With `COc1cccc(Cn2nc(N3CCCCCC3)n3c4ccc(Cl)cc4c(=O)nc23)c1` [Compound 121, 1-(azepan-1-yl)-7-chloro-3-(3-methoxybenzyl)-3H-[1,2,4]triazolo[4,3-a]quinazolin-5-one], the melting point stood at 163 °C.
For `COc1ccc(Cn2nc(N3CCCCCC3)n3c4ccc(Cl)cc4c(=O)nc23)cc1` [Compound 122, 1-(azepan-1-yl)-7-chloro-3-(4-methoxybenzyl)-3H-[1,2,4]triazolo[4,3-a]quinazolin-5-one], the melting point lay in the range of 164 to 165 °C.
Then `O=c1nc2n(Cc3ccc(Cl)c(Cl)c3)nc(N3CCCCCC3)n2c2ccc(Cl)cc12` [Compound 123, 1-(azepan-1-yl)-7-chloro-3-(3,4-dichlorobenzyl)-3H-[1,2,4]triazolo[4,3-a]quinazolin-5-one], with 212 °C; and `COc1ccc(Cn2nc(N3CCCCCC3)n3c4ccc(Cl)cc4c(=O)nc23)cc1OC` [Compound 124, 1-(azepan-1-yl)-7-chloro-3-(3,4-dimethoxybenzyl)-3H-[1,2,4]triazolo[4,3-a]quinazolin-5-one], with 153 °C.
For `O=c1nc2n(Cc3ccccn3)nc(N3CCCCCC3)n2c2ccc(Cl)cc12` [Compound 125, 1-(azepan-1-yl)-7-chloro-3-(2-pyridylmethyl)-3H-[1,2,4]triazolo[4,3-a]quinazolin-5-one], the melting point came to 153 °C.
`O=c1nc2n(Cc3cccnc3)nc(N3CCCCCC3)n2c2ccc(Cl)cc12` [Compound 126, 1-(azepan-1-yl)-7-chloro-3-(3-pyridylmethyl)-3H-[1,2,4]triazolo[4,3-a]quinazolin-5-one] came in with a melting point of 184 °C.
With `COc1ccc(CCn2nc(N3CCCCCC3)n3c4ccc(Cl)cc4c(=O)nc23)cc1` [Compound 128, 1-(azepan-1-yl)-7-chloro-3-[2-(4-methoxyphenyl)ethyl)-3H-[1,2,4]triazolo[4,3-a]quinazolin-5-one], the melting point was 196 °C.
As to `O=c1nc2n(CCCc3ccccc3)nc(N3CCCCCC3)n2c2ccc(Cl)cc12` [Compound 129, 1-(azepan-1-yl)-7-chloro-3-(3-phenylpropyl)-3H-[1,2,4]triazolo[4,3-a]quinazolin-5-one], the melting point was 130 °C.
With `O=C(Cn1nc(N2CCCCCC2)n2c3ccc(Cl)cc3c(=O)nc12)c1ccccc1` [Compound 130, 1-Azepan-1-yl-7-chloro-3-(2-oxo-2-phenyl-ethyl)3H-[1,2,4]triazolo[4,3-a]quinazolin-5-one], the melting point is 230 to 232 °C.
`COc1ccc(C(=O)Cn2nc(N3CCCCCC3)n3c4ccc(Cl)cc4c(=O)nc23)cc1` [Compound 131, 1-(azepan-1-yl)-7-chloro-3-(2-(4-methoxyphenyl)-2-oxoethyl]-3H-[1,2,4]triazolo[4,3-a]quinazolin-5-one]: the melting point was found to be 238 °C.
Compound `O=C(Cn1nc(N2CCCCCC2)n2c3ccc(Cl)cc3c(=O)nc12)c1ccc(Cl)cc1` [Compound 132, 1-(azepan-1-yl)-7-chloro-3-[2-(4-chlorophenyl)-2-oxoethyl)-3H-[1,2,4]triazolo[4,3-a]quinazolin-5-one] had a melting point of 238 °C.
In turn, `COC(=O)c1cc(C(=O)Cn2nc(N3CCCCCC3)n3c4ccc(Cl)cc4c(=O)nc23)ccc1OC` [Compound 133, 5-[(1-(azepan-1-yl)-7-chloro-5-oxo-5H-[1,2,4]triazolo[4,3-a]-quinazolin-3-yl)acetyl]-2-methoxybenzoic acid methyl ester] registered a melting point of 136 °C.
As for `O=c1nc2n(Cc3ccc(Cl)cc3)nc(N3CCCCCC3)n2c2ccc(Br)cc12` [Compound 134, 1-(azepan-1-yl)-7-bromo-3-(4-chlorobenzyl)-3H-[1,2,4]triazolo[4,3-a]quinazolin-5-one], the melting point came out at 247 °C.
As for `O=c1nc2n(Cc3ccc(F)cc3)nc(N3CCCCCC3)n2c2ccc(Br)cc12` [Compound 135, 1-(azepan-1-yl)-7-bromo-3-(4-fluorobenzyl)-3H-[1,2,4]triazolo[4,3-a]quinazolin-5-one], the figure is 216 °C; as for `N#Cc1ccc(Cn2nc(N3CCCCCC3)n3c4ccc(Br)cc4c(=O)nc23)cc1` [Compound 136, 4(1-(azepan-1-yl)-7-bromo-5-oxo-5H-[1,2,4]triazolo[4,3-a]-quinazolin-3-ylmethyl)-benzonitrile], 293 °C; as for `COc1ccc(Cn2nc(N3CCCCCC3)n3c4ccc(Br)cc4c(=O)nc23)cc1OC` [Compound 137, 1-(azepan-1-yl)-7-bromo-3-(3,4dimethoxybenzyl)-3H-[1,2,4]triazolo[4,3-a]quinazolin-5-one], 174 °C.
As for `O=C(O)Cc1ccc(Cn2nc(N3CCCCCC3)n3c4ccc(Br)cc4c(=O)nc23)cc1` [Compound 138, [4-(7-Bromo-5-oxo-1-perhydro-azepin-1-yl-5H-[1,2,4]triazolo[4,3-a]quinazolin-3-ylmethyl)-phenyl]-acetic acid], the figure is 269 °C.
On to `O=c1nc2n(Cc3cccnc3)nc(N3CCCCCC3)n2c2ccc(Br)cc12` [Compound 139, 1-(azepan-1-yl)-7-bromo-3-(pyridin-3-ylmethyl)-3H-[1,2,4]triazolo[4,3-a]quinazolin-5-one], for which the melting point came out at 192 °C.
The compound `O=c1nc2n(C/C=C/c3ccccc3)nc(N3CCCCCC3)n2c2ccc(Br)cc12` [Compound 140, 1-Azepan-1-yl-7-bromo-3-((E)-3-phenyl-allyl)-3H-[1,2,4]triazolo(4,3-a]quinazolin-5-one] had a melting point of 198 °C.
Regarding `O=c1nc2n(C/C=C/c3ccccc3)nc(N3CCCCC3)n2c2ccc(Br)cc12` [Compound 141, 7-Bromo-3-((E)-3-phenyl-allyl)-1-piperidin-1-yl-3H-[1,2,4]triazolo[4,3-a]quinazolin-5one], the melting point is 187 °C.
`O=c1nc2n(Cc3ccc(F)cc3)nc(N3CCCC3)n2c2ccc(Br)cc12` [Compound 143, 7-bromo-3-(4-fluorobenzyl)-1-(pyrrolidin-1-yl)-3H-[1,2,4]triazolo[4,3-a]quinazolin-5-one] yielded a melting point of 233 °C.
`N#Cc1ccc(Cn2nc(N3CCCC3)n3c4ccc(Br)cc4c(=O)nc23)cc1` [Compound 144, 4-(7-bromo-5-oxo-1-(pyrrolidin-1-yl)-5H-[1,2,4]triazolo[4,3-a]-quinazolin-3-ylmethyl)-benzonitrile] gave a melting point of 222 °C.
For `COC(=O)c1ccc(Cn2nc(N3CCCC3)n3c4ccc(Br)cc4c(=O)nc23)cc1` [Compound 145, 4-(7-bromo-5-oxo-1-(pyrrolidin-1-yl)-5H-[1,2,4]triazolo[4,3-a]-quinazolin-3-ylmethyl)benzoic acid methyl ester], the melting point was found to be 193 °C.
For the compound `COc1ccc(Cn2nc(N3CCCC3)n3c4ccc(Br)cc4c(=O)nc23)cc1` [Compound 146, 7-Bromo-3-(4-methoxy-benzyl)-1-pyrrolidin-1-yl-3H-[1,2,4]triazolo[4,3-a]quinazolin-5-one], the melting point was 164 °C.
As for `CC(=O)Oc1ccc(Cn2nc(N3CCCC3)n3c4ccc(Br)cc4c(=O)nc23)cc1` [Compound 147, Acetic acid 4-(7-bromo-5-oxo-1-pyrrolidin-1-yl-5H-[1,2,4]triazolo[4,3-a]quinazolin-3-ylmethyl)phenyl ester], the figure is 199 °C.
